Patent US9696306B2, “Methods of reducing levels of tau” (The Trustees of Columbia University in the City of New York, priority 2011, dated 2017)

Assays:
Type in all cases: cell-based, mouse
[1] = test system: Aβ40; assay: Aβ40 detection by human specific ELISA in conditioned medium of Tg2576 mES cell derived neurons; conditions: for secretion of Aβ40: Tg2576 ES cell derived neurons, conditioned medium; for IC50: optimized 96 well platform, 24 hours
Text: (§1) The reliable detection of proteolytic derivatives of APP, including AP, is critical for a physiologically relevant cell based AD model. It was established that ES cell-derived pyramidal neurons express the major proteolytic enzymes mediating APP processing, β-site APP cleaving enzyme (BACE1) and presenilin 1 (PS1) (FIG. 2a). Endogenous APP, BACE1 and PS1 were abundantly detected in ES cell-derived pyramidal neurons at DIV 7, 14, 21. APP and BACE1 were not detected in ES cells, but PS1 was detectable consistent with it's described role in development (Wong, P. C. et al. Nature 387, 288-292 (1997)). To achieve robust and reproducible neuronal expression of human APP, ES cells from the inner cell mass of blastocysts were isolated from a well characterized mouse model of AD, Tg2576. Tg2576 mice express human APP, harboring the Swedish mutation (APPsw) under the control of hamster PrP promoter (Hsiao, K. et al. Science 274, 99-102 (1996)). […] In Tg2576 ES cell derived neurons, APP cleavage products were readily detectable. C-terminal APP fragments (CTFs) were detected in the neuronal lysate by Western blot analysis (FIG. 2b). Both human β- and α-secretase-derived secreted soluble APP (sAPPβ and sAPPα, respectively) were detected using immunoprecipitation of conditioned medium with sβsw and Aβ levels were detected in conditioned media using a human Aβ specific ELISA (FIG. 2b-e). […] Consistent with previous studies in cell models and mouse brain, CTFs resulting from APP cleavage, accumulated in response to γ-secretase inhibitor treatment (FIG. 2b). Identical results were seen when neurons were infected with an APPsw Lenti virus and APP processing was analyzed (FIG. 6a-c). […] Thus, these neurons are suitable for lentiviral mediated genetic manipulation studies.
(§2) To accommodate high-throughput screening, Aβ detection assays using the Tg2576 mES cell derived neurons were miniaturized for a 96 well platform. […] It was determined that the optimal cell density of 1.5×10^5 cells/cm^2 maximized the cell viability signal. […]
(§3) Day 12-30 neurons were infected with a lentivirus carrying the Swedish variant of human APP (pLenti6/hAPPsw). […] The levels of Aβ42 and Aβ40 in conditioned media were determined using sandwich ELISA (Invitrogen) according to the manufacturer's protocol. Total Aβ was detected by immunoprecipitating conditioned medium with 6E10 (Covance) or 7N22 (Invitrogen) antibodies overnight at 4° C. Samples were separated using the NuPAGE gel system and Aβ peptides detected by quantitative Western blotting with 6E10. Full-length APP was detected by Western blot analysis using 6E10 (Covance) or polyclonal antibody against the C-terminus of APP (APP-Ctmaxi) (Okada, H., et al. FASEB J. 24, 2783-94 (2010)). […]

[2] = test system: Aβ42; assay: Aβ42 detection by human specific ELISA in conditioned medium of Tg2576 mES cell derived neurons; conditions: for secretion of Aβ42: Tg2576 ES cell derived neurons, conditioned medium; for IC50: optimized 96 well platform, 24 hours
Text: as §1, §2, §3

[3] = test system: sAPPβ; assay: Immunoprecipitation/Western blot of secreted sAPPβ from conditioned medium of Tg2576 ES cell derived neurons
Text: (§4) The reliable detection of proteolytic derivatives of APP, including AP, is critical for a physiologically relevant cell based AD model. It was established that ES cell-derived pyramidal neurons express the major proteolytic enzymes mediating APP processing, β-site APP cleaving enzyme (BACE1) and presenilin 1 (PS1) (FIG. 2a). Endogenous APP, BACE1 and PS1 were abundantly detected in ES cell-derived pyramidal neurons at DIV 7, 14, 21. APP and BACE1 were not detected in ES cells, but PS1 was detectable consistent with it's described role in development (Wong, P. C. et al. Nature 387, 288-292 (1997)). […] In Tg2576 ES cell derived neurons, APP cleavage products were readily detectable. C-terminal APP fragments (CTFs) were detected in the neuronal lysate by Western blot analysis (FIG. 2b). Both human β- and α-secretase-derived secreted soluble APP (sAPPβ and sAPPα, respectively) were detected using immunoprecipitation of conditioned medium with sβsw and Aβ levels were detected in conditioned media using a human Aβ specific ELISA (FIG. 2b-e). […] Identical results were seen when neurons were infected with an APPsw Lenti virus and APP processing was analyzed (FIG. 6a-c). […]
(§5) Day 12-30 neurons were infected with a lentivirus carrying the Swedish variant of human APP (pLenti6/hAPPsw). […] Samples were separated using the NuPAGE gel system and Aβ peptides detected by quantitative Western blotting with 6E10. […]

[4] = test system: sAPPα; assay: Immunoprecipitation/Western blot of secreted sAPPα from conditioned medium of Tg2576 ES cell derived neurons
Text: as §4, §5

[5] = test system: APP-CTF; assay: Western blot of C-terminal APP fragments (CTFs) in lysate of Tg2576 ES cell derived neurons; conditions: neuronal lysate
Text: as §4, §5

SMILES	secretion of Aβ40 [1]	IC50 [1] [nM]	secretion of Aβ42 [2]	IC50 [2] [nM]	secretion of sAPPβ [3]	level of sAPPα [4]	CTFs resulting from APP cleavage [5]
C[C@@H](NC(=O)c1cc(C(=O)N[C@@H](Cc2ccccc2)[C@H](O)CNC2CC2)cc(N(C)S(C)(=O)=O)c1)c1ccccc1 [BACE inhibitor]	decreased	44.7	decreased	7.8	decreased	–	–
C[C@H](NC(=O)Cc1cc(F)cc(F)c1)C(=O)N[C@H]1N=C(c2ccccc2)c2ccccc2N(C)C1=O [Compound E]	inhibited	0.2	inhibited	0.2	without affecting	without affecting	accumulated
CC(C)C[C@H](CC(=O)NO)C(=O)N[C@H](C(=O)N[C@@H](C)C(=O)NCCN)C(C)(C)C [TAPI-2]	–	–	–	–	–	decrease	–
